SMILES strings stand for the structures.

The experiment concerns the target BTK (Homo sapiens (Human), UniProt Q06187). In words: Reversibility of binding (compound in solution by HPLC-MS/MS before and after target perturbation). Here is the method: The following approach was developed to differentiate compounds that form irreversible covalent bond with their targets, such as non-cyano containing acrylamide compounds, from compound that form reversible covalent bond i.e., compounds and/or pharmaceutically acceptable salts of the present disclosure. […] The reactions were then treated with perturbations including both denaturation with 5 M guanidine hydrochloride and digestion with trypsin, disrupting proper folding of the target. […] The concentration of compound in solution was assessed both preceding and following perturbation using high performance liquid chromatography (HPLC) coupled to tandem mass spectrometry.

Chain of BTK (Q06187 whole entry): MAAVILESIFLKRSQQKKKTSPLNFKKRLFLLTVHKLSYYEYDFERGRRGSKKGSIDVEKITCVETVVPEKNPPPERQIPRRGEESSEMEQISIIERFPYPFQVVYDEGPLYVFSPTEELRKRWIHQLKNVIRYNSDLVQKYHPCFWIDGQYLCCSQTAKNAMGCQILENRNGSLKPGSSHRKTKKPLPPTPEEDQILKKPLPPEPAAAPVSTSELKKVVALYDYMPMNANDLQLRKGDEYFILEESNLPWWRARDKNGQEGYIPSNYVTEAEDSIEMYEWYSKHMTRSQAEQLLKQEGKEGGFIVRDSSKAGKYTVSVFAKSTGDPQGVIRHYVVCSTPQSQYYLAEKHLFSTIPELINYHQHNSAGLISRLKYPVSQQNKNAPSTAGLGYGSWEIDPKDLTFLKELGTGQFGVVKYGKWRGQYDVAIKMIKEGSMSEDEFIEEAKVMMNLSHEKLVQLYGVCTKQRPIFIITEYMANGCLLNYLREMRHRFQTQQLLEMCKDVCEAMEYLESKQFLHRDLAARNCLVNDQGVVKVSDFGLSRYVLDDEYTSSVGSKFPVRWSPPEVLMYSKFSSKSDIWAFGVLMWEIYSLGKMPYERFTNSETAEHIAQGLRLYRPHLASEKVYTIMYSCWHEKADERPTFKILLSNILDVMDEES

Consider `CN(C1COC1)C(C)(C)C=C(C#N)C(=O)N1CCC[C@H]1Cn1nc(-c2ccc(Oc3ccccc3)cc2F)c2c(N)ncnc21` [Example 10, 2-[(2S)-2-[[4-amino-3-(2-fluoro-4-phenoxy-phenyl)pyrazolo[3,4-d]pyrimidin-1-yl]methyl]pyrrolidine-1-carbonyl]-4-methyl-4-[methyl(oxetan-3-yl)amino]pent-2-enenitrile], for which the “Compound in solution in the denatured or digested state?” value (after 5 M guanidine hydrochloride denaturation or trypsin digestion) is listed as “yes”. Further, the “Compound in solution in the native state?” value (target in excess, native state) is recorded as “no”.

The values are drawn from patent US9266895B2, “Substituted pyrazolo[3,4-d]pyrimidines as kinase inhibitors” (PRINCIPIA BIOPHARMA INC., priority 2012, dated 2016).
